From EP1860116A1, “Trehalose conjugate with carnosine having antioxidant activity, stable to enzymatic hydrolysis, procedure for its preparation, and pharmaceutical, cosmetic and nutraceutical compositions that contain it” (Universita' Degli Studi Di Catania, priority 2006, dated 2007) come the findings set out here.

The structures appear in SMILES notation.

For series [1], the system named is low-density lipoproteins (LDL). Kind of series: Antioxidant activity towards low-density lipoproteins (LDL): Cu2+-induced lipid peroxidation, MDA determined by HPLC. In kind it is biochemical. The note with it: human LDL, peroxidation induced by copper (II) ions (40 µM), 4 h at 37°C, pH 7.4; conjugate at 5, 10, 20, 50, 100 and 200 µM; compared with carnosine. On the procedure:
In order to test the antioxidant activity of carnosine and the carbohydrate derivative, freeze-dried human LDL (Sigma) was used as lipid peroxidation target.
The MDA standard was obtained by hydrolysis of the bis-dimethylacetal derivative (Sigma) in 1% sulphuric acid.
The process of peroxidation of humane LDLs (Sigma), suspended in 20 mM ammonium acetate at pH 7.4, was triggered by the addition of Cu^2+ (40 µM) to the protein suspension, followed by a 4 h incubation at 37°C (Free Radic. Res. 35, 953, 2001; J. Agr. Food Chem. 45, 3362, 1997). The lipid peroxidation inhibiting effect of the trehalose-carnosine conjugate was evaluated by adding this molecule to the LDL-Cu^2+ system at increasing concentrations (5, 10, 20, 50, 100 and 200 µM). The peroxidation reaction was interrupted by adding an equal volume of acetonitrile, followed by double extraction with chloroform.
For the determination of MDA, the end product of lipid peroxidation, the aqueous extract was analysed by HPLC, using an analysis method reported in Anal. Biochem. 197, 191, 1991 (data reported in figure 1).

The subject of series [2] is carnosinase contained in rat brain homogenate. Description: Enzymatic hydrolysis by brain carnosinase (rat brain homogenate, histidine quantified fluorometrically with OPA). In kind it is in vitro ADME. The note with it: 20% rat brain homogenate, Tris buffer pH 8.1, 37°C for 2 h, compared with carnosine. The protocol:
The breakdown of the carbohydrate conjugate of carnosine was measured by the following method: a 20% homogenate of rat brain was prepared with a 50 mM Tris buffer (Tris-(hydroxymethyl)-aminomethane) pH 8.1 containing 2 mM DTT (di-thio-threitol), and the mixture was centrifuged for 20 min at 19000 rpm. Part of the supernatant solution (192 µl) was incubated at 37°C for 2 h with the carnosine-trehalose conjugate, in a final volume of 300 µl. The reaction was interrupted by adding acetonitrile (300 µL), and the solution was subjected to double extraction with chloroform. The amount of histidine in the final solution was quantified fluorometrically after reacting with orthophthaldialdehyde OPA (Fluka), according to a method reported in Clin. Chim.

Consider `O=C(CCNC[C@H]1O[C@H](O[C@H]2O[C@H](CO)[C@@H](O)[C@H](O)[C@H]2O)[C@H](O)[C@@H](O)[C@@H]1O)N[C@@H](Cc1c[nH]cn1)C(=O)O` [compound I, 6-(β-alanyl-L-histidine)-6-deoxy-α,α'-trehalose], for which the “antioxidant activity (lipid peroxidation inhibiting effect)” value in series [1] is on record as “dose-dependent antioxidant effect, which was significantly greater than that of carnosine”. For the same molecule, the “resistance to enzymatic hydrolysis by carnosinase” value in series [2] is “more resistant to the carnosinase contained in rat brain homogenate than carnosine”; in series [2] (listed as compound according to the invention), “more resistant to enzymatic hydrolysis than carnosine”.
